Assay in all cases: kinase panel
Common to all, as to assay type: biochemical

The target in one assay is T1, ARK5(h) (Homo sapiens, UniProt O60285).
T1 sequence (O60285 1-661): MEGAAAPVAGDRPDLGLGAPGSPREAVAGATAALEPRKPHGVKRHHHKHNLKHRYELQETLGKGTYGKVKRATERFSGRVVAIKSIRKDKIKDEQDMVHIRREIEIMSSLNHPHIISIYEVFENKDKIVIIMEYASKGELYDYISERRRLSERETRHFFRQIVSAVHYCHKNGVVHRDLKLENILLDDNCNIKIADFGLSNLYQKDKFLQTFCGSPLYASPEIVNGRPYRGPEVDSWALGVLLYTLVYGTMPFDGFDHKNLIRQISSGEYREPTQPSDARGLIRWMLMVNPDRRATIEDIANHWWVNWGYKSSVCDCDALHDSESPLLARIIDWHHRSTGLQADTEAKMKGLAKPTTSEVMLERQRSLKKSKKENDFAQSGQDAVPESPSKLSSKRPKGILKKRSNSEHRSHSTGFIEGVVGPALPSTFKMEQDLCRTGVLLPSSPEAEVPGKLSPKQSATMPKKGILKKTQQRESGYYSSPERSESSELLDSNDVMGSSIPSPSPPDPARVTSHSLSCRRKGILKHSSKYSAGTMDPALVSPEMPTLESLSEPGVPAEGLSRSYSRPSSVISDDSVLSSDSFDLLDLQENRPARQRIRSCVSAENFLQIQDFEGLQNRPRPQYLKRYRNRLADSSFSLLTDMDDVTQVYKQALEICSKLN
The essentials:
(§1)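 % inhibition read-out; kinome panel of 231 kinases; one analogue run on a selected 98-kinase subset only.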

The target of the next assay is CDK5/p35(h) (Homo sapiens, UniProt Q00535). The essentials:
as §1

A further assay addresses T2, CHK1(h) (Homo sapiens, UniProt O14757).
T2 sequence (O14757 1-476): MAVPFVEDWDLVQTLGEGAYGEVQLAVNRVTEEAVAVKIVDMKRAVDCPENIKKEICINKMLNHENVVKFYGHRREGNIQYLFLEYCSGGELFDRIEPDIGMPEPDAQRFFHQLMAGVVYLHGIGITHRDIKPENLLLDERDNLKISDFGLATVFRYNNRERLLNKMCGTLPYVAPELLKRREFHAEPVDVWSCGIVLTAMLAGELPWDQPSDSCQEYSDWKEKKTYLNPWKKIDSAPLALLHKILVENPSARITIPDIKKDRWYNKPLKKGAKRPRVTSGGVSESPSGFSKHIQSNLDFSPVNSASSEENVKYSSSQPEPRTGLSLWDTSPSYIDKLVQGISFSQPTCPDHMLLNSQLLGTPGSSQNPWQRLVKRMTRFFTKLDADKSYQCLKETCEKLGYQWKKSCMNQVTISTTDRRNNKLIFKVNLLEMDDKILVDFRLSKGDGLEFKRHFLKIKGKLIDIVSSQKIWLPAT
The essentials:
as §1

A further assay deals with GSK3α(h) (Homo sapiens, UniProt P49840). The essentials: as §1
Another assay deals with PAR-1Bα(h) (Homo sapiens, UniProt Q7KZI7). The essentials: as §1
For a further assay, the target named is T3, PRAK(h) (Homo sapiens, UniProt Q8IW41).
T3 sequence (Q8IW41 1-473): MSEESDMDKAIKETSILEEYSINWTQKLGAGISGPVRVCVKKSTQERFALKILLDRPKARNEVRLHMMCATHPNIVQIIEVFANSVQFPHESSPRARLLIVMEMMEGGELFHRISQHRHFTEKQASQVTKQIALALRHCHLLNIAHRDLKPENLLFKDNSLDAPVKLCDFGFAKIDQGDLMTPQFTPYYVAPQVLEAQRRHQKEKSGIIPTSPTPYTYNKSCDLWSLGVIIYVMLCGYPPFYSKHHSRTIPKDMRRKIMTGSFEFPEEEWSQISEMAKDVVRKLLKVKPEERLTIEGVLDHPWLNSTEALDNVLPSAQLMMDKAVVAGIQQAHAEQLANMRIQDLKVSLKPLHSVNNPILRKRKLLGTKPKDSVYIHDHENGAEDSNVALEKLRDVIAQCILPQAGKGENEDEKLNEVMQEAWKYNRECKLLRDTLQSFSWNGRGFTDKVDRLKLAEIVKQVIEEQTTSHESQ
The essentials: as §1

In a further assay the target is Rsk1(h) (Homo sapiens, UniProt Q15418). The essentials:
as §1

The next assay addresses T4, TBK1(h) (Homo sapiens, UniProt Q9UHD2).
T4 sequence (Q9UHD2 1-729): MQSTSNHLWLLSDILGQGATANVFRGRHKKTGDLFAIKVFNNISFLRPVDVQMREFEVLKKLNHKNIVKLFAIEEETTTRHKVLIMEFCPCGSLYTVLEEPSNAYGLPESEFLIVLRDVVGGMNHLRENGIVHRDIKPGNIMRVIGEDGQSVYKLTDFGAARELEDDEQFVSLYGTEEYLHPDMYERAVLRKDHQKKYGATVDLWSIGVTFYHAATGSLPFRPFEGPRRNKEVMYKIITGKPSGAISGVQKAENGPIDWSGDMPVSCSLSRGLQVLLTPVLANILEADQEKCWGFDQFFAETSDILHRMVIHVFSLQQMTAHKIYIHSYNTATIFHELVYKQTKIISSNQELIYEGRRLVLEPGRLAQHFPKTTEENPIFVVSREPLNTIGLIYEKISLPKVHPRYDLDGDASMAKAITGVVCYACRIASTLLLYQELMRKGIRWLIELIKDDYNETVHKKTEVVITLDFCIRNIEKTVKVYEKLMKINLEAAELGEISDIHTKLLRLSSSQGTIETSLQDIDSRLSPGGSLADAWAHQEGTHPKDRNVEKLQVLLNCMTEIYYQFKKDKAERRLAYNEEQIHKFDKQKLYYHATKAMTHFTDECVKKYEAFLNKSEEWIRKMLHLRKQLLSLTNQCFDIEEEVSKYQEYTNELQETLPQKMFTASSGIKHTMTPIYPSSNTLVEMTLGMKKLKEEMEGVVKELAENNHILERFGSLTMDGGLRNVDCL
The essentials: as §1

For a further assay, the target named is TrkA(h) (Homo sapiens, UniProt P04629). The essentials: as §1
In a further assay the target is ZIPK(h) (Homo sapiens, UniProt O43293). The essentials:
as §1

Chain of Rsk1(h) (Q15418 whole entry): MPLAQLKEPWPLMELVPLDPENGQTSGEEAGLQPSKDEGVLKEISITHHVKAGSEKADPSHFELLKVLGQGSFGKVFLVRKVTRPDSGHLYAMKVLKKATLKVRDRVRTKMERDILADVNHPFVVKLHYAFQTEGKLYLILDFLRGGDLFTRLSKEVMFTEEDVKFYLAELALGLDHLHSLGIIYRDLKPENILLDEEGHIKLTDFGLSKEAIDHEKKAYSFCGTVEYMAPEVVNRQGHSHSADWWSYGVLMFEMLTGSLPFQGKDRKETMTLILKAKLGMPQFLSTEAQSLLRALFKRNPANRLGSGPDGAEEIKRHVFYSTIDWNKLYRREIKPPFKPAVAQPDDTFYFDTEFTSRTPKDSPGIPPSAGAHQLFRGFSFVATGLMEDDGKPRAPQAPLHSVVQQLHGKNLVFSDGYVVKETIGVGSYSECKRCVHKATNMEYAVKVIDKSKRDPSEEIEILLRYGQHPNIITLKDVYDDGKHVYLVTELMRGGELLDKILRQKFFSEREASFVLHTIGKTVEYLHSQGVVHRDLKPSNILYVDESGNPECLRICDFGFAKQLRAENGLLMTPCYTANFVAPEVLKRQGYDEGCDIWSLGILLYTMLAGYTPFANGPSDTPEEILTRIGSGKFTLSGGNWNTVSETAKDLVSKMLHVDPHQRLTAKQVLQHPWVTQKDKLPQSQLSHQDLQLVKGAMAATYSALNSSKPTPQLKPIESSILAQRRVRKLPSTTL
Chain of CDK5/p35(h) (Q00535 whole entry): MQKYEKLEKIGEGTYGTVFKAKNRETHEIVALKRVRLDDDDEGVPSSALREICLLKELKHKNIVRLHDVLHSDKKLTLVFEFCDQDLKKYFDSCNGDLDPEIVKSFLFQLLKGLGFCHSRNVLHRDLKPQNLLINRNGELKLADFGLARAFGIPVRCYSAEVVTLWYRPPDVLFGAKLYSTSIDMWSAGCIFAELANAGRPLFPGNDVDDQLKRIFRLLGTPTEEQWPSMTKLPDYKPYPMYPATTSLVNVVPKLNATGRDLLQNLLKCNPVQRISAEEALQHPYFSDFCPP
Chain of CDK5/p35(h) (Q15078 whole entry partner): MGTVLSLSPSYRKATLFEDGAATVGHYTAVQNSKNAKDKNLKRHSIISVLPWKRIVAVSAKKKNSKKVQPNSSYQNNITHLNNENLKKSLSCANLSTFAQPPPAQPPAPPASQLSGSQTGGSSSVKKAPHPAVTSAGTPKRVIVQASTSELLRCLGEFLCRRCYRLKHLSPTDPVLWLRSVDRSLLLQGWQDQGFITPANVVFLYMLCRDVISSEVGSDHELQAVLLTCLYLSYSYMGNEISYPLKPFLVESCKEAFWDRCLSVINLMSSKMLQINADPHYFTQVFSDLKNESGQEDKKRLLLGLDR
Chain of PAR-1Bα(h) (Q7KZI7 whole entry): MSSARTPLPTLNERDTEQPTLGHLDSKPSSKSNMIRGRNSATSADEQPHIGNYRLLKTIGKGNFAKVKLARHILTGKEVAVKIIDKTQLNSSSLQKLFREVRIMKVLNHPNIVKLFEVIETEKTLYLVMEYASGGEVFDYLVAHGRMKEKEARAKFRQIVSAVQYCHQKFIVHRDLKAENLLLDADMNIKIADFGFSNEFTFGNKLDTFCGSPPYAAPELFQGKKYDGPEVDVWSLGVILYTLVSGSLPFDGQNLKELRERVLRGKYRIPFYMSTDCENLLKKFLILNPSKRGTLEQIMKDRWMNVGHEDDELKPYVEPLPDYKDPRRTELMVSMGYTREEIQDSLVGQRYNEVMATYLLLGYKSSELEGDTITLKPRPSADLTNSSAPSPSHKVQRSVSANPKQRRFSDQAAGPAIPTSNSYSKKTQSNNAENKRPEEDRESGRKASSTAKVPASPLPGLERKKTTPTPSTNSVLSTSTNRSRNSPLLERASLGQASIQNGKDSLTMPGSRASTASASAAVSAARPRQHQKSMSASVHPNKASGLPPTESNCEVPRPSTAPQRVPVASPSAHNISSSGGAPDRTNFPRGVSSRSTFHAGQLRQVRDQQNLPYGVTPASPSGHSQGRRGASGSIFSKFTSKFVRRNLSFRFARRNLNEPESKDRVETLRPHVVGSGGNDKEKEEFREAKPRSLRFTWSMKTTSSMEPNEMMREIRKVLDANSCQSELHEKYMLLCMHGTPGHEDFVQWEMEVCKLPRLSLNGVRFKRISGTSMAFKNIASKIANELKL
Chain of ZIPK(h) (O43293 whole entry): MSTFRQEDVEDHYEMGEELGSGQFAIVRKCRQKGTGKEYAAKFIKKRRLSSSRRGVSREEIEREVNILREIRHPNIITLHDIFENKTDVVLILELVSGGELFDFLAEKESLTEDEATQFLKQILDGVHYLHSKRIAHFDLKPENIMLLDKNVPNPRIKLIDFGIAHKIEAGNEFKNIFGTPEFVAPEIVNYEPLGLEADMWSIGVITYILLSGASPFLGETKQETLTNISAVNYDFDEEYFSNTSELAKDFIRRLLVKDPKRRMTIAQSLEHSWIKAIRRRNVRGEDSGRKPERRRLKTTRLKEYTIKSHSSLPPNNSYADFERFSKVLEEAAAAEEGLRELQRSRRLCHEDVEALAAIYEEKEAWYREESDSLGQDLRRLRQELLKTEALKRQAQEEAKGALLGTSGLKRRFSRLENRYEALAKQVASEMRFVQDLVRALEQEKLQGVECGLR
Chain of TrkA(h) (P04629 33-796): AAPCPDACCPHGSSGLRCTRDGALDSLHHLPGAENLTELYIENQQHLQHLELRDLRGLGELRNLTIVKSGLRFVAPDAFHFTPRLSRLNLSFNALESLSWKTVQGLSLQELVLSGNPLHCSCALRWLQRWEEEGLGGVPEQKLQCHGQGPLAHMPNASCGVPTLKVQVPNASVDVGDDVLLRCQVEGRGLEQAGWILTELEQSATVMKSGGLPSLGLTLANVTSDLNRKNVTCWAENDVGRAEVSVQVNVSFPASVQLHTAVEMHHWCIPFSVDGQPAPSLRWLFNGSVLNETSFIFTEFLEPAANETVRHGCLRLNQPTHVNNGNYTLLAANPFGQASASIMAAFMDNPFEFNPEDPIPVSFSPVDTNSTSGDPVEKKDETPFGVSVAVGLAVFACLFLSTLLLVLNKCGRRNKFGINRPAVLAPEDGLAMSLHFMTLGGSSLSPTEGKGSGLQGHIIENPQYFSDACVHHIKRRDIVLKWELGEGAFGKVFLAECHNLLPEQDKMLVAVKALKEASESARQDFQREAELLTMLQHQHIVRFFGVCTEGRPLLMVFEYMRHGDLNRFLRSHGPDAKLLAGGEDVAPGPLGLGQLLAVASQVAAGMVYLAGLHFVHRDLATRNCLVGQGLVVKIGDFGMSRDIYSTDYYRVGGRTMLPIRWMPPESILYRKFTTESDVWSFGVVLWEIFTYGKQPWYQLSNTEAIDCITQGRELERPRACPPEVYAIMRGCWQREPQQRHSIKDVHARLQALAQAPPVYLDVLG
Chain of GSK3α(h) (P49840 whole entry): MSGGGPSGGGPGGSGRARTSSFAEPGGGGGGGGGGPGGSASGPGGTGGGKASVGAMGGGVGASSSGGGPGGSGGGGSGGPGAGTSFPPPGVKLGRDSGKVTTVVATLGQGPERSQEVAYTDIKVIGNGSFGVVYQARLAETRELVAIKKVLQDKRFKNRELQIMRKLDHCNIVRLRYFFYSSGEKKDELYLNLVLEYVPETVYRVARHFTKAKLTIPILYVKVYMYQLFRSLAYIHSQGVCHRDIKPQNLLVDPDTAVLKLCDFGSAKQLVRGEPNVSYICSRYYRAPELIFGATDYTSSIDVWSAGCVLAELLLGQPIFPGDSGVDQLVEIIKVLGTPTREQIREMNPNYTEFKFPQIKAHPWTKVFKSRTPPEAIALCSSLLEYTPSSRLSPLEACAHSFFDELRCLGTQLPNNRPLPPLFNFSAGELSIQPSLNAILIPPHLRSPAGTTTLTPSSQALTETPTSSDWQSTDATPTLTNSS

Broadly, the inhibition is the relative decrease from the control value, in per cent. Take `Nc1n[nH]c2ccc(-c3ccnc4[nH]c(-c5ccccc5)cc34)cc12` [Compound 4]: the inhibition at 1 µM against ARK5(h) is 87%; against CDK5/p35(h), 101%; against CHK1(h), -2%; on GSK3α(h), 95%; against PAR-1Bα(h), 86%; against PRAK(h) it was 97%. Moreover, the inhibition at 1 µM at Rsk1(h) is 38%; on TBK1(h), 81%; against TrkA(h), 71%; against ZIPK(h), -7%.

Turning to `Nc1n[nH]c2ccc(-c3ccnc4[nH]c(-c5cccc(OCc6ccccc6)c5)cc34)cc12` [Compound 5r [SU1261]], the inhibition at 1 µM against ARK5(h) is 33%; at CDK5/p35(h) it was 96%; against CHK1(h) it was -2%; against GSK3α(h), 74%; on PAR-1Bα(h), 29%; on PRAK(h) it was 91%. In addition, the inhibition at 1 µM on Rsk1(h) was found to be 2%; at TBK1(h), 22%; on TrkA(h), 29%; on ZIPK(h) it was 0%.

Regarding `Nc1n[nH]c2ccc(-c3ccnc4[nH]c(-c5ccnc(OCc6ccccc6)c5)cc34)cc12` [Compound 6g [SU1349]], the inhibition at 1 µM at ARK5(h) is 3%; against CDK5/p35(h), 90%; at CHK1(h) it was -9%; against GSK3α(h), 27%; at PAR-1Bα(h) it was 20%; against PRAK(h) it was 44%. The inhibition at 1 µM against Rsk1(h) is -18%; against TBK1(h) it was 2%; against TrkA(h) it was -11%; on ZIPK(h), 1%.
